Assay results from article PMC12845312, “Hydrazonylthiazole Derivatives as Dual EGFR and ALR2 Inhibitors: Design, Synthesis, and Comprehensive In Vitro and In Silico Evaluation for Potential Anticancer Activity” (Pharmaceuticals, 2025).
Like-named read-outs stand apart in the source and are kept apart here. Values belong to the compound of their own block, whether it stands above or below them.

Key:
[1] = target: ALR2 (Homo sapiens, UniProt P15121); test: In vitro ALR2 inhibition assay (NADPH absorbance, DL-glyceraldehyde substrate); type: biochemical; conditions: for Ki: ALR2, DL-glyceraldehyde substrate, mean ±SEM (n = 3)
Method: The protocol followed earlier steady-state kinetic studies with minor adjustments. Measurements were performed at 37 °C in 10 mM sodium phosphate buffer (pH 7.4) in 1 mL quartz cuvettes (1 cm path length). Each reaction mixture contained 0.11 mM NADPH and DL-glyceraldehyde at final concentrations between 0.071 and 0.376 mM. Test compounds were introduced from DMSO stock solutions, and the total DMSO content was kept below 1% (v/v).
Prior to substrate addition, the enzyme and inhibitor were combined and left on ice for 1 min to allow initial complex formation. The reaction was initiated by adding DL-glyceraldehyde, and the decrease in absorbance at 340 nm (ε340 = 6.22 mM^−1 cm^−1) was recorded for 180 s using a calibrated UV-Vis instrument. […] All values represent the mean of triplicate determinations, and the entire experiment was repeated on three separate days (n = 3). Reaction rates were calculated from the linear segment of each kinetic trace.
For selected compounds, including compound 5, extended kinetic analyses were conducted by varying both substrate and inhibitor levels. The resulting Lineweaver-Burk plots (1/v vs. 1/[S]) were used to interpret the inhibition pattern (Figure 18). Secondary replots were used to extract KI values by linear regression. Data processing and curve fitting were performed in GraphPad Prism (v10.0), and kinetic parameters are expressed as mean ± SEM.

[2] = system: MCF-7 cells; conditions: cited from earlier work
[3] = system: MCF-7 (breast cancer) cells; test: MTT cytotoxicity assay in MCF-7 cells; type: cell-based; conditions: for reduced viability in MCF-7 cells: 10 µM; for IC50: Homo sapiens, MCF7
Method: (§1) A549 (ATCC, Manassas, VA, USA) and MCF-7 (ATCC, VA, USA) cells were grown in Dulbecco’s Modified Eagle Medium (DMEM; Wako, Osaka, Japan) containing 10% fetal bovine serum (FBS; Equitech-Bio, Kerrville, TX, USA). Jurkat T-cells (ATCC, VA, USA) were maintained in RPMI-1640 medium (Wako Pure Chemical Industries, Osaka, Japan) supplemented with 10% FBS, while PBMCs (Precision Bioservices, Frederick, MD, USA) were expanded in the same medium supplemented with 10% human AB serum (Gemini, Woodland, CA, USA). Streptomycin was added to all culture media at a final concentration of 89 µg/mL (Meiji Seika Pharma, Tokyo, Japan). All cells were kept at 37 °C under humidified conditions with 5% CO2. For viability measurements, A549 and MCF-7 cells were seeded into 24-well plates, whereas PBMCs were dispensed into 96-well plates (Iwaki, Asahi Glass, Chiba, Japan) at initial densities of 4 × 10^4 cells/mL and 5 × 10^5 cells/mL, respectively. […] The DMSO content was kept constant at 1% in all wells. Cell viability was assessed using the MTT colorimetric assay (Dojindo, Kumamoto, Japan), following established procedures with minor protocol refinements previously reported in the literature.

[4] = target: T1, EGFR (Homo sapiens, UniProt P00533); test: EGFR kinase inhibition (Promega EGFR TK kit, ADP-Glo); type: biochemical
T1 construct: purchased Promega V3831
T1 sequence (P00533 25-1210): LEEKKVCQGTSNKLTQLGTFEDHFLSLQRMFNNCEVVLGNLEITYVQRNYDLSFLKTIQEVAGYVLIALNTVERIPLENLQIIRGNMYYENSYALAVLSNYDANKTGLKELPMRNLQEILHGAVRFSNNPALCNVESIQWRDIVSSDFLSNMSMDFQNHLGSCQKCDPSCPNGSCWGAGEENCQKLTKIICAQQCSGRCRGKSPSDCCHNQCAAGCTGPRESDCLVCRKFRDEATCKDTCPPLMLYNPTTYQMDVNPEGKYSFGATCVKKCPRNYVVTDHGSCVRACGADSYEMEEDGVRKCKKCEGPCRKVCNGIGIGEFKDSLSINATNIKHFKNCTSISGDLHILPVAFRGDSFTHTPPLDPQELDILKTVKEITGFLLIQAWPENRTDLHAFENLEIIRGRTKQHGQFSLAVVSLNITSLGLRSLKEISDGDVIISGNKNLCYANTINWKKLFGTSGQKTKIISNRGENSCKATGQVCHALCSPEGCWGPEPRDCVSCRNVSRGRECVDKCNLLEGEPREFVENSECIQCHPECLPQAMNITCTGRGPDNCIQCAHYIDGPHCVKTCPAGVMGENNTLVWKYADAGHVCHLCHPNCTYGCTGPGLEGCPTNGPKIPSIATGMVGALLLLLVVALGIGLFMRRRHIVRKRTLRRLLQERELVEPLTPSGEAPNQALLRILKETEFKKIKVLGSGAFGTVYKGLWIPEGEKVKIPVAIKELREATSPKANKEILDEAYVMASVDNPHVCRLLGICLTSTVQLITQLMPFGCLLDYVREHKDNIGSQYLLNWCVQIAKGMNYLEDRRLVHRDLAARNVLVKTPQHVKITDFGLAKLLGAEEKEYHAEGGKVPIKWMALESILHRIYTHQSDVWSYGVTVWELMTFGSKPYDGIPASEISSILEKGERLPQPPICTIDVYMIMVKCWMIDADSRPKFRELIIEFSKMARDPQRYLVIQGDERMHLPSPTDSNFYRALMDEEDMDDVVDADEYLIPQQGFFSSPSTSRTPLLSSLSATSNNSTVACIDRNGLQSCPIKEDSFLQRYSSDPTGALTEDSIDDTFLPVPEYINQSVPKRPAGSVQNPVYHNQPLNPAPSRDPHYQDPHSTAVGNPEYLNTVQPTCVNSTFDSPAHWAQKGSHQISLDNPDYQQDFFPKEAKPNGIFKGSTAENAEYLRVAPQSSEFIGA
Method: (§2) EGFR kinase activity was monitored using the Promega EGFR TK kit (Cat. No. V3831) at final test concentrations of 1 µM and 10 µM. HER-2 activity was assessed under analogous conditions using the Promega HER-2 TK kit (Cat. No. V9381) at 10 µM, in accordance with earlier studies. For each assay, the enzyme and its substrate were diluted in a mixture containing 95 µL of 2.5× kinase buffer and 15 µL of 100 µM ATP. Reactions were assembled in 384-well plates by dispensing 4 µL of each compound solution (0.1–100 µM) into wells containing 8 µL of the enzyme/ATP/substrate preparation. Plates were incubated for 1.5 h at room temperature, after which ADP formation, reflecting kinase turnover, was quantified using the ADP-Glo™ detection system (Promega, Madison, WI, USA). Luminescence was measured with an Infinite M1000 reader (Tecan, Grödig, Austria).

[5] = system: A549 (NSCLC) cells; test: MTT cytotoxicity assay in A549 cells; type: cell-based; conditions: for reduction in A549 viability: 10 µM; for IC50: Homo sapiens, A549
Method: as §1

[6] = system: Jurkat leukemia cells; test: MTT cytotoxicity assay in Jurkat cells; type: cell-based; conditions: Homo sapiens
Method: (§3) A549 (ATCC, Manassas, VA, USA) and MCF-7 (ATCC, VA, USA) cells were grown in Dulbecco’s Modified Eagle Medium (DMEM; Wako, Osaka, Japan) containing 10% fetal bovine serum (FBS; Equitech-Bio, Kerrville, TX, USA). Jurkat T-cells (ATCC, VA, USA) were maintained in RPMI-1640 medium (Wako Pure Chemical Industries, Osaka, Japan) supplemented with 10% FBS, while PBMCs (Precision Bioservices, Frederick, MD, USA) were expanded in the same medium supplemented with 10% human AB serum (Gemini, Woodland, CA, USA). Streptomycin was added to all culture media at a final concentration of 89 µg/mL (Meiji Seika Pharma, Tokyo, Japan). All cells were kept at 37 °C under humidified conditions with 5% CO2. For viability measurements, A549 and MCF-7 cells were seeded into 24-well plates, whereas PBMCs were dispensed into 96-well plates (Iwaki, Asahi Glass, Chiba, Japan) at initial densities of 4 × 10^4 cells/mL and 5 × 10^5 cells/mL, respectively. […] Concentrated stock solutions were prepared in dimethyl sulfoxide (DMSO; Wako Pure Chemical Industries) and diluted with culture medium to final assay concentrations ranging from […]. The DMSO content was kept constant at 1% in all wells. Cell viability was assessed using the MTT colorimetric assay (Dojindo, Kumamoto, Japan), following established procedures with minor protocol refinements previously reported in the literature.

[7] = system: peripheral blood mononuclear cells (PBMCs); test: MTT cytotoxicity assay in PBMCs (selectivity); type: cell-based; conditions: for SI (Selectivity Index): IC50 for PBMC/IC50 for Jurkat cell line; for IC50: PBMC, MTT assay
Method: as §3

[8] = target: T1, EGFR; conditions: read-out: EGFR inhibition IC50 (converted); cited from earlier work
[9] = target: T2, HER-2 (Homo sapiens, UniProt P04626); test: HER-2 kinase inhibition (Promega HER-2 TK kit, ADP-Glo); type: biochemical
T2 construct: purchased Promega V9381
T2 sequence (P04626 23-1255): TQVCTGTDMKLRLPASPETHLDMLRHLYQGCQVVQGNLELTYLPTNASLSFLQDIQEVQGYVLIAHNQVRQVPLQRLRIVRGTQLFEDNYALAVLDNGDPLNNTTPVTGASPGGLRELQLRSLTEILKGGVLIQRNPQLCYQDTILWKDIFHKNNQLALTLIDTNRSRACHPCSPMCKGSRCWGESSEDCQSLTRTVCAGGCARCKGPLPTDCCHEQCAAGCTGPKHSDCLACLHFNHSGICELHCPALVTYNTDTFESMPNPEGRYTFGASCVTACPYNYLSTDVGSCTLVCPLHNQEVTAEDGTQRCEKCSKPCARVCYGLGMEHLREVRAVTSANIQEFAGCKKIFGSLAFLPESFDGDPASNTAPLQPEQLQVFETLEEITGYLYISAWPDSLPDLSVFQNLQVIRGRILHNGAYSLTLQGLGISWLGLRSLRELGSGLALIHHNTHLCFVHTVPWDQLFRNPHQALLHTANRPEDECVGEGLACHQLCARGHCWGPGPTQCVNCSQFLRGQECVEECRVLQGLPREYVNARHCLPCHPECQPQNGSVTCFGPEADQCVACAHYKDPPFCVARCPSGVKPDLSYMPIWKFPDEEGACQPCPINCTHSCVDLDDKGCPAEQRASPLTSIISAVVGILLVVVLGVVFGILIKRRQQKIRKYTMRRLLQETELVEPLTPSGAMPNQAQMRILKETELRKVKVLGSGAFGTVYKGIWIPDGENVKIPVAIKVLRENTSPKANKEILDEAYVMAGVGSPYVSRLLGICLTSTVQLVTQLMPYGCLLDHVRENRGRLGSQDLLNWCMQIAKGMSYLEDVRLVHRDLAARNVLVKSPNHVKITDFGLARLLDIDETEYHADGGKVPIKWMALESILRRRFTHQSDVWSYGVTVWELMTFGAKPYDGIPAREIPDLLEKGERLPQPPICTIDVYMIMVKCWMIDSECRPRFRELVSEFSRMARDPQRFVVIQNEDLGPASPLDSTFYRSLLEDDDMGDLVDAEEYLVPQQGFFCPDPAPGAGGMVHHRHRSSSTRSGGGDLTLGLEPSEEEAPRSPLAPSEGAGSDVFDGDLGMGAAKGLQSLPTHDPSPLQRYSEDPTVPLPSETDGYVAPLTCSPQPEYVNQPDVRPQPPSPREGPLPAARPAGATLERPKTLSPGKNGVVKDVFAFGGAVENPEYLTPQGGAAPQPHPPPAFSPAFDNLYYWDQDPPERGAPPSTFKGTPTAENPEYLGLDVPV
Method: as §2

[10] = system: A549 cells; test: Apoptosis, Annexin V/ethidium homodimer staining; type: cell-based; conditions: IC50 concentration, 24 h
Method: After exposure, cells were detached using 0.05% trypsin, rinsed twice with 1× binding buffer, and prepared for fluorescence-based apoptotic assessment. The resulting pellet was suspended in a staining mixture consisting of 50 µL of 1× binding buffer, along with 4 µL each of FITC-Annexin V, ethidium homodimer III, and Hoechst 33342. The suspension was incubated for 20 min at room temperature in the dark to ensure proper labeling. Following staining, cells were washed again with binding buffer, fixed in 2% paraformaldehyde, and briefly rinsed with phosphate-buffered saline (PBS). Apoptotic and necrotic populations were visualized and recorded using a Biorevo BZ-9000 fluorescence microscope (Keyence, Osaka, Japan), following procedures adapted from previously reported workflows.

[11] = system: A549 cells; parameters: method as in doi:10.1016/j.molstruc.2024.139067; conditions: read-out: IC50 against A549 cells; cited from earlier work
[12] = read-out: IC50 against MCF-7 cells

- Ki [1]: 2640 ± 160 nM
SMILES: Cn1ccnc1/C=N/Nc1nc(-c2ccccc2)cs1 [Compound 1, 1-[(4-Phenyl-1,3-thiazol-2-yl)amino]-2-[(1-methyl-1H-imidazol-2-yl)methylidene]hydrazine]

- Ki [1]: 1830 ± 110 nM
SMILES: Cn1ccnc1/C=N/Nc1nc(-c2ccc([N+](=O)[O-])cc2)cs1 [Compound 2, 1-[(4-(4-Nitrophenyl)-1,3-thiazol-2-yl)amino]-2-[(1-methyl-1H-imidazol-2-yl)methylidene]hydrazine]

- Ki [1]: 440 ± 90 nM
SMILES: Cn1ccnc1/C=N/Nc1nc(-c2ccc(F)cc2)cs1 [Compound 3, 1-[(4-(4-Fluorophenyl)-1,3-thiazol-2-yl)amino]-2-[(1-methyl-1H-imidazol-2-yl)methylidene]hydrazine]

- Ki [1]: 280 ± 30 nM
SMILES: Cn1ccnc1/C=N/Nc1nc(-c2ccc(Cl)cc2)cs1 [Compound 4, 1-[(4-(4-Chlorophenyl)-1,3-thiazol-2-yl)amino]-2-[(1-methyl-1H-imidazol-2-yl)methylidene]hydrazine]

SMILES: Cn1c(-c2csc(NN=C3CCCC3)n2)nc2ccccc21 [Compound 4a]
- IC50 [2, 12]: 6.3 µM

- Ki [1]: 80 ± 10 nM
- inhibition profile (Lineweaver–Burk) ([1]; toward DL-glyceraldehyde): competitive inhibition profile
- inhibition at 1 µM [4]: 23%
- inhibition at 10 µM [4]: 51%
SMILES: Cn1ccnc1/C=N/Nc1nc(-c2ccc(Br)cc2)cs1 [Compound 5]
- reduced viability in MCF-7 cells [3]: 67%
- IC50 [3]: 2780 ± 2850 nM
- reduction in A549 viability [5]: ~ 59%
- IC50 [5]: 6.87 ± 2.1 µM
- IC50 [6]: 1940 ± 650 nM
- SI (Selectivity Index) [7]: 37.39
- IC50 [7]: 72.5 ± 14 µM

SMILES: C/C(=N\Nc1nc(C)c(/N=N/c2ccc(Cl)cc2)s1)c1cccs1 [Compound 5j]
- IC50 [8]: 82.8 nM
- IC50 ([2]; read-out: IC50 toward MCF-7 cells): 10.9 µM

- Ki [1]: 210 ± 20 nM
SMILES: Cn1ccnc1/C=N/Nc1nc(-c2ccc(C#N)cc2)cs1 [Compound 6, 1-[(4-(4-Cyanophenyl)-1,3-thiazol-2-yl)amino]-2-[(1-methyl-1H-imidazol-2-yl)methylidene]hydrazine]

SMILES: CCOC(=O)c1s/c(=N/N=C(\C)c2ccc(Nc3ccnc4cc(Cl)ccc34)cc2)n(C)c1C [Compound 6b]
- IC50 [8]: 18.9 nM
- IC50 ([2]; read-out: IC50 against MCF-7 cell line): 5.35 µM

- Ki [1]: 280 ± 30 nM
SMILES: Cc1ccc(-c2csc(N/N=C/c3nccn3C)n2)cc1 [Compound 7, 1-[(4-(4-Methylphenyl)-1,3-thiazol-2-yl)amino]-2-[(1-methyl-1H-imidazol-2-yl)methylidene]hydrazine]

- Ki [1]: 210 ± 20 nM
SMILES: COc1ccc(-c2csc(N/N=C/c3nccn3C)n2)cc1 [Compound 8, 1-[(4-(4-Methoxyphenyl)-1,3-thiazol-2-yl)amino]-2-[(1-methyl-1H-imidazol-2-yl)methylidene]hydrazine]

- Ki [1]: 910 ± 50 nM
SMILES: Cn1ccnc1/C=N/Nc1nc(-c2ccc(C(F)(F)F)cc2)cs1 [Compound 9, 1-[(4-(4-Trifluoromethylphenyl)-1,3-thiazol-2-yl)amino]-2-[(1-methyl-1H-imidazol-2-yl)methylidene]hydrazine]

- Ki [1]: 240 ± 20 nM
SMILES: Cn1ccnc1/C=N/Nc1nc(-c2ccc(S(C)(=O)=O)cc2)cs1 [Compound 10, 1-[(4-(4-Methylsulfonylphenyl)-1,3-thiazol-2-yl)amino]-2-[(1-methyl-1H-imidazol-2-yl)methylidene]hydrazine]

- Ki [1]: 1910 ± 100 nM
SMILES: Cn1ccnc1/C=N/Nc1nc(-c2ccc3ccccc3c2)cs1 [Compound 11, 1-[(4-(Naphthalen-2-yl)-1,3-thiazol-2-yl)amino]-2-[(1-methyl-1H-imidazol-2-yl)methylidene]hydrazine]

- Ki [1]: 2010 ± 100 nM
SMILES: Cn1ccnc1/C=N/Nc1nc(-c2ccc3c(c2)OCO3)cs1 [Compound 12, 1-[(4-(Benzo[d][1,3]dioxol-5-yl)-1,3-thiazol-2-yl)amino]-2-[(1-methyl-1H-imidazol-2-yl)methylidene]hydrazine]

- Ki [1]: 2480 ± 140 nM
- inhibition at 1 µM [4]: 45%
- inhibition at 10 µM [4]: 74%
- inhibition at 10 µM [9]: 1.89%
SMILES: Cn1ccnc1/C=N/Nc1nc(-c2ccc(-c3cccs3)cc2)cs1 [Compound 13, 1-[(4-(4-(Thiophen-2-yl)phenyl)-1,3-thiazol-2-yl)amino]-2-[(1-methyl-1H-imidazol-2-yl)methylidene]hydrazine]
- reduced viability in MCF-7 cells [3]: 69%
- IC50 [3]: 1740 ± 380 nM
- reduction in A549 viability [5]: ~ 67%
- IC50 [5]: 1.33 ± 0.41 µM
- IC50 [6]: 1650 ± 400 nM
- SI (Selectivity Index) [7]: 138.90
- IC50 [7]: 229 ± 26.2 µM
- apoptosis induction [10]: triggered apoptosis in A549 cells significantly compared with lapatinib

SMILES: O=[N+]([O-])c1ccc(-c2csc(N/N=C/c3c4ccccc4cc4ccccc34)n2)cc1 [Compound A5]
- IC50 [11]: 8.51 µM
- IC50 [8]: 880 nM
- IC50 [2, 12]: 7 µM

- inhibition at 10 µM [9]: 93%
SMILES: CS(=O)(=O)CCNCc1ccc(-c2ccc3ncnc(Nc4ccc(OCc5cccc(F)c5)c(Cl)c4)c3c2)o1 [Lapatinib, lapatinib, reference compound]
- IC50 [3]: 8430 ± 2850 nM
- IC50 [5]: 17.9 ± 5.12 µM
- IC50 [6]: 1350 ± 410 nM
- IC50 [7]: 9.79 ± 2.69 µM
- apoptosis induction [10]: highly significant increases vs. untreated control
